Measured values from PMC11090339, “Synthesis, molecular docking study and biological evaluation of new pyrrole scaffolds as potential antitubercular agents for dual targeting of enoyl ACP reductase and dihydrofolate reductase” (PLOS ONE, 2024).
In brackets after ≈: the same amount, converted by molar mass.

Legend:
[1] = test system: E. coli (Gram-negative); experiment: Antibacterial activity, broth microdilution method; assay type: cell-based; conditions: Escherichia coli, read-out: E. coli (Gram–ve) MIC
[2] = test system: S. aureus (Gram-positive); experiment: Antibacterial activity, broth microdilution method; assay type: cell-based; conditions: Staphylococcus aureus, read-out: S. aureus (Gram +ve) MIC
[3] = test system: M. tuberculosis H37Rv; experiment: Antitubercular activity, Microplate Alamar Blue test (MABA); assay type: cell-based; conditions: Mycobacterium tuberculosis
[4] = target: MtDHFR (Mycobacterium tuberculosis, UniProt P9WNX1); experiment: biochemical; assay type: biochemical; conditions: for MtDHFR inhibition compared with trimethoprim: in words
MtDHFR, sequence (P9WNX1 whole entry): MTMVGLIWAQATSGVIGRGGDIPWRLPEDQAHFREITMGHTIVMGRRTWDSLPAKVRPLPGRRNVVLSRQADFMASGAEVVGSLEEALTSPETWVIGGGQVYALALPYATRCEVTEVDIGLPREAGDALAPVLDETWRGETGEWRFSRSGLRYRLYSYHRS

[5] = target: InhA (Mycobacterium tuberculosis, UniProt P9WGR1); experiment: Enoyl ACP reductase (InhA) inhibition; assay type: biochemical
InhA, sequence (P9WGR1 whole entry, looked up): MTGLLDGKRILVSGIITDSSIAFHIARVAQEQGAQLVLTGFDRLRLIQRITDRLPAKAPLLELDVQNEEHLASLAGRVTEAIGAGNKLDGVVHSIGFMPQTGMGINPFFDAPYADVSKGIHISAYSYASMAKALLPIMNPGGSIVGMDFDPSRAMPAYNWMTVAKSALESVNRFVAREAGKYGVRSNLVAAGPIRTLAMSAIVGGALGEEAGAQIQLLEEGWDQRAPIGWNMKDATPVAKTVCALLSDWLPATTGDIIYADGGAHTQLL

[6] = test system: Mammalian Vero cell-lines; experiment: MTT-based cytotoxicity activity; conditions: Chlorocebus sabaeus, means ± SEM of three independent experiments, read-out: IC50 MV cell-lines
[7] = test system: A549 (lung adenocarcinoma) cell-lines; experiment: MTT-based cytotoxicity activity; assay type: cell-based; conditions: Homo sapiens, means ± SEM of three independent experiments

O=C(O)c1cn(C2CC2)c2cc(N3CCNCC3)c(F)cc2c1=O [Ciprofloxacin, reference compound]
MIC [1]: 2 µg/mL (≈ 6.04 µM) | MIC [2]: 2 µg/mL (≈ 6.04 µM)

O=C(COc1ccccc1)NNC(=O)c1ccc(-n2cccc2)cc1 [Compound 3a, N’-(2-phenoxyacetyl)-4-(1H-pyrrol-1-yl) benzohydrazide]
MIC [3]: 12.5 µg/mL (≈ 37.3 µM) | MIC [1]: 6.25 µg/mL (≈ 18.6 µM) | MIC [2]: 100 µg/mL (≈ 298 µM)

Cc1ccc(OCC(=O)NNC(=O)c2ccc(-n3cccc3)cc2)cc1 [Compound 3b, 4-(1H-pyrrol-1-yl)-N’-(2-(p-tolyloxy)acetyl)benzohydrazide]
MIC [3]: 12.5 µg/mL (≈ 35.8 µM) | MIC [1]: 6.25 µg/mL (≈ 17.9 µM) | MIC [2]: 100 µg/mL (≈ 286 µM)

O=C(COc1ccccc1O)NNC(=O)c1ccc(-n2cccc2)cc1 [Compound 3c, N’-(2-(2-hydroxyphenoxy)acetyl)-4-(1H-pyrrol-1-yl)benzohydrazide]
IC50 [4]: 25 µM | MtDHFR inhibition compared with trimethoprim [4]: greater inhibition characteristics than trimethoprim | inhibition at 50 µM [5]: 46% | IC50 [6]: 223 ± 0.7 µM | MIC [3]: 3.12 µg/mL (≈ 8.88 µM) | MIC [1]: 3.12 µg/mL (≈ 8.88 µM) | MIC [2]: 100 µg/mL (≈ 285 µM) | IC50 [7]: 224 ± 0.6 µM

Cc1ccc(OCC(=O)NNC(=O)c2ccc(-n3cccc3)cc2)c(C)c1 [Compound 3d, N’-(2-(2,4-dimethylphenoxy)acetyl)-4-(1H-pyrrol-1yl)benzohydrazide]
IC50 [4]: 32 µM | MtDHFR inhibition compared with trimethoprim [4]: greater inhibition characteristics than trimethoprim | inhibition at 50 µM [5]: 48% | IC50 [6]: 216 ± 0.4 µM | MIC [3]: 3.12 µg/mL (≈ 8.59 µM) | MIC [1]: 1.6 µg/mL (≈ 4.4 µM) | MIC [2]: 100 µg/mL (≈ 275 µM) | IC50 [7]: 212 ± 0.4 µM

Cc1cccc(OCC(=O)NNC(=O)c2ccc(-n3cccc3)cc2)c1 [Compound 3e, 4-(1H-pyrrol-1-yl)-N’-(2-(m-tolyloxy)acetyl)benzohydrazide]
MIC [3]: 6.25 µg/mL (≈ 17.9 µM) | MIC [1]: 12.5 µg/mL (≈ 35.8 µM) | MIC [2]: 100 µg/mL (≈ 286 µM)

O=C(COc1ccc(Cl)cc1)NNC(=O)c1ccc(-n2cccc2)cc1 [Compound 3f, N’-(2-(4-chlorophenoxy)acetyl)-4-(1H-pyrrol-1-yl)benzohydrazide]
IC50 [4]: 122 µM | MIC [3]: 6.25 µg/mL (≈ 16.9 µM) | MIC [1]: 12.5 µg/mL (≈ 33.8 µM) | MIC [2]: 100 µg/mL (≈ 270 µM)

O=C(COc1cc(O)cc(O)c1)NNC(=O)c1ccc(-n2cccc2)cc1 [Compound 3g, N’-(2-(3,5-dihydroxyphenoxy)acetyl)-4-(1H-pyrrol-1-yl) benzohydrazide]
IC50 [4]: 20 µM | MtDHFR inhibition compared with trimethoprim [4]: greater inhibition characteristics than trimethoprim | inhibition at 50 µM [5]: 63% | IC50 [6]: 216 ± 0.5 µM | MIC [3]: 3.12 µg/mL (≈ 8.49 µM) | MIC [1]: 1.6 µg/mL (≈ 4.36 µM) | MIC [2]: 100 µg/mL (≈ 272 µM) | IC50 [7]: 216 ± 0.5 µM

Cc1cc(C)cc(OCC(=O)NNC(=O)c2ccc(-n3cccc3)cc2)c1 [Compound 3h, N’-(2-(3,5-dimethylphenoxy)acetyl)-4-(1H-pyrrol-1-yl) benzohydrazide]
IC50 [4]: 19 µM | MtDHFR inhibition compared with trimethoprim [4]: greater inhibition characteristics than trimethoprim | inhibition at 50 µM [5]: 59% | IC50 [6]: 219 ± 0.6 µM | MIC [3]: 3.12 µg/mL (≈ 8.59 µM) | MIC [1]: 3.12 µg/mL (≈ 8.59 µM) | MIC [2]: 100 µg/mL (≈ 275 µM) | IC50 [7]: 219 ± 0.1 µM

O=C(COc1cccc(O)c1)NNC(=O)c1ccc(-n2cccc2)cc1 [Compound 3i, N’-(2-(3-hydroxyphenoxy)acetyl)-4-(1H-pyrrol-1-yl)benzohydrazide]
MIC [3]: 12.5 µg/mL (≈ 35.6 µM) | MIC [1]: 12.5 µg/mL (≈ 35.6 µM) | MIC [2]: 100 µg/mL (≈ 285 µM)

O=C(COc1ccccc1Cl)NNC(=O)c1ccc(-n2cccc2)cc1 [Compound 3j, N’-(2-(2-chlorophenoxy)acetyl)-4-(1H-pyrrol-1-yl)benzohydrazide]
MIC [3]: 12.5 µg/mL (≈ 33.8 µM) | MIC [1]: 6.25 µg/mL (≈ 16.9 µM) | MIC [2]: 100 µg/mL (≈ 270 µM)

Cc1ccc(C)n1-c1ccc(C(=O)NNC(=O)COc2ccccc2)cc1 [Compound 5a, 4-(2,5-dimethyl-1H-pyrrol-1-yl)-N’-(2-phenoxyacetyl) benzohydrazide]
IC50 [4]: 98 µM | inhibition at 50 µM [5]: 26% | MIC [3]: 6.25 µg/mL (≈ 17.2 µM) | MIC [1]: 6.25 µg/mL (≈ 17.2 µM) | MIC [2]: 100 µg/mL (≈ 275 µM)

Cc1ccc(OCC(=O)NNC(=O)c2ccc(-n3c(C)ccc3C)cc2)cc1 [Compound 5b, 4-(2,5-dimethyl-1H-pyrrol-1-yl)-N’-(2-(p-tolyloxy)acetyl) benzohydrazide]
MIC [3]: 12.5 µg/mL (≈ 33.1 µM) | MIC [1]: 12.5 µg/mL (≈ 33.1 µM) | MIC [2]: 100 µg/mL (≈ 265 µM)

Cc1ccc(C)n1-c1ccc(C(=O)NNC(=O)COc2ccccc2O)cc1 [Compound 5c, 4-(2,5-dimethyl-1H-pyrrol-1-yl)-N’-(2-(2-hydroxyphenoxy)acetyl) benzohydrazide]
MIC [3]: 12.5 µg/mL (≈ 32.9 µM) | MIC [1]: 12.5 µg/mL (≈ 32.9 µM) | MIC [2]: 100 µg/mL (≈ 264 µM)

Cc1ccc(OCC(=O)NNC(=O)c2ccc(-n3c(C)ccc3C)cc2)c(C)c1 [Compound 5d, 4-(2,5-dimethyl-1H-pyrrol-1-yl)-N’-(2-(2,4-dimethylphenoxy)acetyl) benzohydrazide]
IC50 [4]: 56 µM | MtDHFR inhibition compared with trimethoprim [4]: greater inhibition characteristics than trimethoprim | inhibition at 50 µM [5]: 62% | IC50 [6]: 226 ± 0.5 µM | MIC [3]: 1.6 µg/mL (≈ 4.09 µM) | MIC [1]: 3.12 µg/mL (≈ 7.97 µM) | MIC [2]: 100 µg/mL (≈ 255 µM) | IC50 [7]: 222 ± 0.5 µM

Cc1cccc(OCC(=O)NNC(=O)c2ccc(-n3c(C)ccc3C)cc2)c1 [Compound 5e, 4-(2,5-dimethyl-1H-pyrrol-1-yl)-N’-(2-(m-tolyloxy)acetyl) benzohy drazide]
IC50 [4]: 62 µM | MtDHFR inhibition compared with trimethoprim [4]: greater inhibition characteristics than trimethoprim | inhibition at 50 µM [5]: 66% | IC50 [6]: 220 ± 0.2 µM | MIC [3]: 1.6 µg/mL (≈ 4.24 µM) | MIC [1]: 3.12 µg/mL (≈ 8.27 µM) | MIC [2]: 100 µg/mL (≈ 265 µM) | IC50 [7]: 219 ± 0.3 µM

Cc1ccc(C)n1-c1ccc(C(=O)NNC(=O)COc2ccc(Cl)cc2)cc1 [Compound 5f, N’-(2-(4-chlorophenoxy)acetyl)-4-(2,5-dimethyl-1H-pyrrol-1-yl) ben zohydrazide]
MIC [3]: 3.12 µg/mL (≈ 7.84 µM) | MIC [1]: 6.25 µg/mL (≈ 15.7 µM) | MIC [2]: 100 µg/mL (≈ 251 µM)

Cc1ccc(C)n1-c1ccc(C(=O)NNC(=O)COc2cc(O)cc(O)c2)cc1 [Compound 5g, N’-(2-(3,5-dihydroxyphenoxy)acetyl)-4-(2,5-dimethyl-1H-pyrrol-1-yl) benzohydrazide]
MIC [3]: 3.12 µg/mL (≈ 7.89 µM) | MIC [1]: 3.12 µg/mL (≈ 7.89 µM) | MIC [2]: 100 µg/mL (≈ 253 µM)

Cc1cc(C)cc(OCC(=O)NNC(=O)c2ccc(-n3c(C)ccc3C)cc2)c1 [Compound 5h, 4-(2,5-dimethyl-1H-pyrrol-1-yl)-N’-(2-(3,5-dimethylphenoxy)acetyl) benzohydrazide]
MIC [3]: 3.12 µg/mL (≈ 7.97 µM) | MIC [1]: 3.12 µg/mL (≈ 7.97 µM) | MIC [2]: 100 µg/mL (≈ 255 µM)

Cc1ccc(C)n1-c1ccc(C(=O)NNC(=O)COc2cccc(O)c2)cc1 [Compound 5i, 4-(2,5-dimethyl-1H-pyrrol-1-yl)-N’-(2-(3-hydroxyphenoxy)acetyl) benzohydrazide]
MIC [3]: 6.25 µg/mL (≈ 16.5 µM) | MIC [1]: 3.12 µg/mL (≈ 8.22 µM) | MIC [2]: 100 µg/mL (≈ 264 µM)

Cc1ccc(C)n1-c1ccc(C(=O)NNC(=O)COc2ccccc2Cl)cc1 [Compound 5j, N’-(2-(2-chlorophenoxy)acetyl)-4-(2,5-dimethyl-1H-pyrrol-1-yl) ben zohydrazide]
MIC [3]: 3.12 µg/mL (≈ 7.84 µM) | MIC [1]: 6.25 µg/mL (≈ 15.7 µM) | MIC [2]: 100 µg/mL (≈ 251 µM)

NNC(=O)c1ccncc1 [INH, Isoniazid, reference compound]
IC50 [6]: > 450 µM | IC50 [7]: > 450 µM

NC(=O)c1cnccn1 [Pyrazinamide, reference compound]
MIC [3]: 3.12 µg/mL (≈ 25.3 µM)

[H]/N=C(/N)N[C@H]1[C@H](O)[C@@H](O)[C@H](O[C@@H]2O[C@@H](C)[C@](O)(C=O)[C@H]2O[C@@H]2O[C@@H](CO)[C@H](O)[C@@H](O)[C@@H]2NC)[C@@H](N/C(N)=N\[H])[C@@H]1O [Streptomycin, reference compound]
MIC [3]: 6.25 µg/mL (≈ 10.7 µM)
